Source: patent US9890146B2, “Compound having selective EP2 agonist activity” (ONO PHARMACEUTICAL CO., LTD., priority 2014, dated 2018)
Like-named read-outs stand apart in the source and are kept apart here.

Legend:
[1] = test system: male monkey (a cynomolgus monkey); assay: Intraocular pressure lowering activity after ocular instillation; type: in vivo; conditions: Primates, in Macaca fascicularis, topical, maximum rate during 24 hours after ocular instillation of 30 μL, conscious monkey; for inhibition in vivo at 100 µg/mL: administration concentration 100 μg/mL; for inhibition in vivo at 30 µg/mL: administration concentration 30 μg/mL; for inhibition in vivo at 10 µg/mL: administration concentration 10 μg/mL; for inhibition in vivo at 3 µg/mL: administration concentration 3 μg/mL
Description: As can be easily understood by a person skilled in the art, in an in vivo test, since regarding all test compounds, carboxylic acid which is an active body has poor corneal permeability, pharmacological action of the active body was evaluated by ocular instillation administration of a compound which had been converted into an ester such as an ethyl ester or an isopropyl ester, or an alcohol.
A test compound-containing solution (30 μL) which had been adjusted to each of various concentrations was ocular instillation-administered to the left or right eye of a male monkey (a cynomolgus monkey) under consciousness. An intraocular pressure after administration was measured with time from administration initiation to after 24 hours. Upon measurement of an intraocular pressure, a cynomolgus monkey was fixed on a monkey chair, and the monkey was anesthetized by ocular instillation-administering an ocular surface anesthetic (Benoxil eye drops 0.4% Santen Pharmaceutical Co., Ltd.). After mounting of a blepharostat (Handaya Co., Ltd.), an intraocular pressure of both eyes was measured (7 to 8 examples per group) using a pneumatic applanation flat tonometer (Model 30 Classic, REICHERT). A difference between an intraocular pressure value before the administration of a test substance and an intraocular pressure value after the administration of the test substance was calculated as an intraocular pressure lowering rate in accordance with the following equation, and the sustainability of intraocular eye lowering action was evaluated using a maximum intraocular pressure lowering rate during measurement.
The administered concentrations were determined based on the EP2 agonist activities measured by the above-mentioned method.

[2] = target: T1, human EP2 (Homo sapiens, UniProt P43116); assay: Measurement of EP2 agonist activity (measurement of cAMP concentration); type: cell-based
T1 construct: expressed in transfected cells; host or cells: CHO cells (EP2-CHO)
T1 sequence (P43116 whole entry): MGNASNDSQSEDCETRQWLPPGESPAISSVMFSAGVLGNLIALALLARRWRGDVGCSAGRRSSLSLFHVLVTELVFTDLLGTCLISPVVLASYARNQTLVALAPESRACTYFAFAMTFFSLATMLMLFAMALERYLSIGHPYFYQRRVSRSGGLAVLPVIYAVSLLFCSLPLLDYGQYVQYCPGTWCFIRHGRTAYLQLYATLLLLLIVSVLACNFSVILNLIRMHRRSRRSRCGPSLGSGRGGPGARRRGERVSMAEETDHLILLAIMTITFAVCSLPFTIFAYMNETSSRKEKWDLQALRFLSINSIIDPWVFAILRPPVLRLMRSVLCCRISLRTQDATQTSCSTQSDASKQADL
Description: Using Chem1 cells or CHO cells in which various prostanoid receptors were forcibly expressed, respectively, agonist activities of test compounds on various prostanoid receptors was determined employing, as a measure, an intracellular cyclic AMP (hereinbelow, abbreviated as “cAMP”) production amount or an intracellular calcium concentration.
The test compound and a control substance (PGE2 and PGF2α) were dissolved in dimethyl sulfoxide (DMSO) to prepare a 10 mmol/L solution. The 10 mmol/L solution thus prepared was thawed upon use, then serially diluted with DMSO, and then diluted with a buffer solution for measurement use or a buffer solution for measurement use 2, and then the resulting solution was subjected to an experiment.
Cells forcibly expressing various prostanoid receptors were standing-cultured at 37° C. in the presence of 5% CO2 using a DMEM medium (Sigma) (for culturing FP-Chem1) containing inactivated (56° C., 30 minutes) 9.8 vol % nondialysed-FBS (Life Technologies), 1 vol % Non Essential Amino Acids (Life Technologies), 10 mmol/L HEPES Buffer Solution (Life Technologies), 0.5 vol % GENETICIN (Life Technologies) and 1% penicillin-streptomycin (Life Technologies) or an α-MEM medium (Sigma) (for culturing EP2-CHO) containing inactivated (56° C., 30 minutes) 9.8 vol % dialysed-FBS (Life Technologies) and penicillin-streptomycin-glutamine (Life Technologies). Subculturing was carried out by the following manner.
The medium was removed, and washed with a phosphate-buffered physiological saline not containing Ca^2+ and Mg^2+ one time. A proper amount of trypsin-EDTA (Life Technologies) was added, and this was incubated at room temperature, cells were peeled, and a medium having a volume which is 10-fold a volume of trypsin-EDTA was added to stop an enzymatic reaction. After cells were recovered into a centrifuging tube, and centrifuged at room temperature for 3 minutes at 120 g, the supernatant was removed. Cells were suspended in a proper amount of a medium, and seeded in a culturing flask.
On the measurement day, a medium was removed, and EP2-CHO was washed with a phosphate-buffered physiological saline containing 2 mmol/L EDTA and not containing Ca^2+ and Mg^2+ one time. A proper amount of the phosphate-buffered physiological saline containing 2 mmol/L EDTA and not containing Ca^2+ and Mg^2+ was added, this was incubated at 37° C. in the presence of 5% CO2, cells were peeled, cells were recovered into a centrifuging tube, and centrifuged at room temperature for 3 minutes at 550 g, and the supernatant was removed. Cells were suspended in a proper amount of a buffer solution for measurement 1 (MEM medium (Invitrogen) containing 1.0 w/v % bovine serum albumin (Sigma) and 2 μmol/L diclofenac (Sigma)), and centrifuged at room temperature for 3 minutes at 200 g, and the supernatant was removed. Cells were suspended in a buffer solution for measurement 2 (MEM medium (Invitrogen) containing 1.0 w/v % bovine serum albumin (Sigma), 2 μmol/L diclofenac (Sigma) and 1 mmol/L 3-isobutyl-1-methylxanthine), and each 25 μL of the suspension was dispensed into a 96-well ½ area plate so that the cell number per well became […]. A buffer solution for measurement 2 (25 μL) containing an agonist at a variety of concentrations was added to carry out a reaction at room temperature for 30 minutes. Measurement of a cAMP concentration was carried out using the cAMP HTRF HiRange kit (CIS bio International). According to the two step protocol of the kit manual, each 25 μL of cAMP-D2 and Cryptase diluted with a lysis buffer were added, and this was incubated at room temperature for 1 hour. After incubation for 1 hour, time resolution fluorescence at 620 nm and 660 nm when excited at 340 nm was measured using SpectraMax M5e (Molecular Device), and a ratio (TRF ratio) was obtained, thereby, a cAMP concentration was calculated from a calibration line. […]

[3] = prior-art compounds having an analogous structure, same EP2 test, read-out: EP2 agonist activities, EC50 values

## OCc1csc([C@H]2CC[C@@H]3[C@@H](COc4ccc5c(c4)CCC5)[C@H](O)C[C@@H]3O2)n1 [2(4), (2R,4aR,5S,6R,7aS)-5-[(2,3-dihydro-1H-inden-5-yloxy)methyl]-2-[4-(hydroxymethyl)-1,3-thiazol-2-yl]octahydrocyclopenta[b]pyran-6-ol]
[1]
  inhibition in vivo at 100 µg/mL: 40%

## OCc1csc([C@H]2CC[C@@H]3[C@@H](COc4ccc5[nH]ccc5c4)[C@H](O)C[C@@H]3O2)n1 [2(5), (2R,4aR,5S,6R,7aS)-2-[4-(hydroxymethyl)-1,3-thiazol-2-yl]-5-[(1H-indol-5-yloxy)methyl]octahydrocyclopenta[b]pyran-6-ol]
[1]
  inhibition in vivo at 30 µg/mL: 48%

## OCc1csc([C@H]2CC[C@@H]3[C@@H](COc4ccc5c(c4)CC5)[C@H](O)C[C@@H]3O2)n1 [2(7), (2R,4aR,5S,6R,7aS)-5-[(bicyclo[4.2.0]octa-1,3,5-trien-3-yloxy)methyl]-2-[4-(hydroxymethyl)-1,3-thiazol-2-yl]octahydrocyclopenta[b]pyran-6-ol]
[1]
  inhibition in vivo at 30 µg/mL: 38%

## OCc1csc([C@H]2CC[C@@H]3[C@@H](COc4ccc5ccoc5c4)[C@H](O)C[C@@H]3O2)n1 [2(8), (2R,4aR,5S,6R,7aS)-5-[(1-benzofuran-6-yloxy)methyl]-2-[4-(hydroxymethyl)-1,3-thiazol-2-yl]octahydrocyclopenta[b]pyran-6-ol]
[1]
  inhibition in vivo at 30 µg/mL: 55%

## CCc1cc(OC[C@@H]2[C@H]3CC[C@H](c4nc(CO)cs4)O[C@H]3C[C@H]2O)ccc1C [2(9), (2R,4aR,5S,6R,7aS)-5-[(3-ethyl-4-methylphenoxy)methyl]-2-[4-(hydroxymethyl)-1,3-thiazol-2-yl]octahydrocyclopenta[b]pyran-6-ol]
[1]
  inhibition in vivo at 10 µg/mL: 52%

## OCc1csc([C@H]2CC[C@@H]3[C@@H](COc4ccc(Cl)c(C5CC5)c4)[C@H](O)C[C@@H]3O2)n1 [2(10), (2R,4aR,5S,6R,7aS)-5-[(4-chloro-3-cyclopropylphenoxy)methyl]-2-[4-(hydroxymethyl)-1,3-thiazol-2-yl]octahydrocyclopenta[b]pyran-6-ol]
[1]
  inhibition in vivo at 10 µg/mL: 31%

## Cc1ccc(OC[C@@H]2[C@H]3CC[C@H](c4nc(CO)cs4)O[C@H]3C[C@H]2O)cc1C [2(12), (2R,4aR,5S,6R,7aS)-5-[(3,4-dimethylphenoxy)methyl]-2-[4-(hydroxymethyl)-1,3-thiazol-2-yl]octahydrocyclopenta[b]pyran-6-ol]
[1]
  inhibition in vivo at 10 µg/mL: 43%

## Cc1cc(OC[C@@H]2[C@H]3CC[C@H](c4nc(CO)cs4)O[C@H]3C[C@H]2O)ccc1Cl [2(13), (2R,4aR,5S,6R,7aS)-5-[(4-chloro-3-methylphenoxy)methyl]-2-[4-(hydroxymethyl)-1,3-thiazol-2-yl]octahydrocyclopenta[b]pyran-6-ol]
[1]
  inhibition in vivo at 3 µg/mL: 31%

## OCc1csc([C@H]2CC[C@@H]3[C@@H](COc4cccc5c4CCC5)[C@H](O)C[C@@H]3O2)n1 [2(14), (2R,4aR,5S,6R,7aS)-5-[(2,3-dihydro-1H-inden-4-yloxy)methyl]-2-[4-(hydroxymethyl)-1,3-thiazol-2-yl]octahydrocyclopenta[b]pyran-6-ol]
[1]
  inhibition in vivo at 30 µg/mL: 45%

## OCc1csc([C@H]2CC[C@@H]3[C@@H](COc4ccc5c(c4F)CCC5)[C@H](O)C[C@@H]3O2)n1 [2(16), (2R,4aR,5S,6R,7aS)-5-{[(4-fluoro-2,3-dihydro-1H-inden-S-yl)oxy]methyl}-2-[4-(hydroxymethyl)-1,3-thiazol-2-yl]octahydrocyclopenta[b]pyran-6-ol]
[1]
  inhibition in vivo at 30 µg/mL: 51%

## CC(C)OC(=O)c1csc([C@H]2CC[C@@H]3[C@@H](COc4ccccc4)[C@H](O)C[C@@H]3O2)n1 [3(1), isopropyl 2-[(2R,4aR,5S,6R,7aS)-6-hydroxy-5-(phenoxymethyl)octahydrocyclopenta[b]pyran-2-yl]-1,3-thiazole-4-carboxylate]
[1]
  inhibition in vivo at 100 µg/mL: 28%

## Cc1cc(OC[C@@H]2[C@H]3CC[C@H](c4nc(C(=O)OC(C)C)cs4)O[C@H]3C[C@H]2O)ccc1[N+](=O)[O-] [3(3), isopropyl 2-{(2R,4aR,5S,6R,7aS)-6-hydroxy-5-[(3-methyl-4-nitrophenoxy)methyl]octahydrocyclopenta[b]pyran-2-yl}-1,3-thiazole-4-carboxylate]
[1]
  inhibition in vivo at 3 µg/mL: 33%

## CC(C)OC(=O)c1csc([C@H]2CC[C@@H]3[C@@H](COc4ccc5c(c4)CCC5)[C@H](O)C[C@@H]3O2)n1 [3(4)]
[1]
  inhibition in vivo at 30 µg/mL: 35%

## OCc1csc([C@H]2CC[C@@H]3[C@@H](COc4ccc5c(c4)CCC5)[C@@H](O)C[C@@H]3O2)n1 [10(1), (2R,4aR,5S,6S,7aS)-5-[(2,3-dihydro-1H-inden-5-yloxy)methyl]-2-[4-(hydroxymethyl)-1,3-thiazol-2-yl]octahydrocyclopenta[b]pyran-6-ol]
[1]
  inhibition in vivo at 3 µg/mL: 29%

## CCc1cc(OC[C@@H]2[C@H]3CC[C@H](c4nc(CO)cs4)O[C@H]3C[C@@H]2O)ccc1C [10(3), (2R,4aR,5S,6S,7aS)-5-[(3-ethyl-4-methylphenoxy)methyl]-2-[4-(hydroxymethyl)-1,3-thiazol-2-yl]octahydrocyclopenta[b]pyran-6-ol]
[1]; administration concentration 1 μg/mL
  inhibition in vivo at 1 µg/mL: 49%

## O=C(O)c1csc([C@H]2CC[C@@H]3[C@@H](COc4ccc(C5CC5)c(C5CC5)c4)[C@@H](O)C[C@@H]3O2)n1 [Example 9, 2-{(2R,4aR,5S,6S,7aS)-5-[(3,4-dicyclopropylphenoxy)methyl]-6-hydroxyoctahydrocyclopenta[b]pyran-2-yl}-1,3-thiazole-4-carboxylic acid]
[2]; EP2-CHO cells, cAMP production (HTRF), reaction 30 minutes at room temperature, read-out: EP2 agonist activity EC50
  EC50: 0.0028 µM

## O=C(O)c1csc([C@H]2CC[C@@H]3[C@@H](/C=C/[C@@H](O)COc4ccccc4)[C@H](O)C[C@@H]3OC2)n1 [reference compound]
[2]; [3]
  EC50: ≥ 10 µM

## O=C(O)c1ccc(C2=CC[C@@H]3[C@@H](/C=C/[C@@H](O)C4CCCC4)[C@H](O)C[C@@H]3O2)o1 [reference compound]
[2]; [3]
  EC50: ≥ 10 µM

## CCCCC[C@H](O)/C=C/[C@@H]1[C@H]2CCC(c3ccccc3CC(=O)O)O[C@H]2C[C@H]1O (stereo partly shown) [reference compound]
[2]; [3]
  EC50: ≥ 10 µM
